Values joined by “and” are separate entries in the source; they are usually repeats but may differ in a detail not shown here. Equal values may be shown once.
System: Aedes aegypti
Test: Examination of repellent activity using skin test (treated human forearm in cage of about 100 mated female mosquitoes)
Type: in vivo
Settings: for Effective repellency duration (hour) (mean ± standard deviation): maximum measurement time 12 hours
Excerpt: Citronellic acid and geranic acid, which are used in the present invention, are commercially available or can directly be synthesized. In this embodiment, products of Aldrich Co. (product names are respectively Citronellic acid and Geranic acid) were purchased and used as citronellic acid and geranic acid. Purities of the above two compounds were examined using a gas chromatograph (GC) and a gas chromatograph-mass spectrometry (GC-MS). The compounds having purity of 99.5% or greater were only used. Respective ingredients of the above compounds were added to isopropyl alcohol of 91% to make test samples consisting of a solution in the concentration of 0.5 to 50%. The samples were used for mosquito repellent efficacy experiments.
The test samples manufactured as above underwent repellent effective experiments with respect to Aedes which is a main mosquito group attacking human.
In this embodiment, Aedes aegypti was used as test mosquitoes. The Aedes aegypti was supplied from Korea Research Institute of Bioscience and Biotechnology and reared indoor from generation to generation.
The larvae of the Aedes aegypti were reared in a plastic container of 22×14×7 cm containing distilled water with small amount of one-to-one mixture of chicken feed and yeast. Fresh mosquito pupae were transferred into a paper cup containing water and then placed in a transparent rearing cage to emerge as adults. Here, the rearing cage was constructed with metal net. Males and females of the freshly emerged mosquitoes were transferred to a rearing cage at one-to-one ratio, and left for two or three days for mating. The female mosquitoes were then used for repellency tests. Eight percent (8%) sugar water was supplied for the adult mosquitoes. The following rearing conditions were maintained: light condition of 16 h:8 h (day:night), temperature of 27±2° C., and relative humidity of 80±10%.
In order to examine effectiveness of the mosquito repellent of the prepared sample solutions, one (1) ml of a sample solution was uniformly applied, using a metal rod, on a forearm of a volunteer human test subject between wrist and elbow. Thereafter, the arm treated with the test solution was inserted in a bioassay cage, constructed with Plexiglass of 50×50×50 cm containing approximately 100 mated female mosquitoes. The number of mosquitoes trying to bite was recorded for three minutes in every thirty minutes for up to 4 hours or in every hour for up to 12 hours. The time required to get the arm bitten by two cumulative mosquitoes was regarded as effective repellency duration. A net window of 40×40 cm was present at each side and top of the Plexiglass bioassay cage to allow air ventilation. A 15×15 cm hole was prepared at the front side of the Plexiglass bioassay cage and a long net sleeve was attached to the hole so that the test arm could be put into the cage for repellency test.
At the beginning of each repellency test, an arm treated with no solvent was placed in the bioassay cage containing mosquitoes, in order to examine blood feeding activity of the mated female test mosquitoes. The repellency tests with the test solutions were carried out only when the arm was bitten by at least two mosquitoes for initial three minutes.
Repellent activity against Aedes was examined in accordance with the aforementioned method using the samples which respectively contain citronellic acid and geranic acid. Also, mosquito repellent activity was measured with solutions which contain DEET and Picadirin, wherein the DEET and Picadirin are commercially available mosquito repellents which are currently recommended by the Center for Disease Control of the United States.
In Table 4 to Table 6, the repellent efficiency was calculated using the following Equation 1.

[1] = 10% (0.25 mg/cm^3), 120 minutes
[2] = 10% (0.25 mg/cm^3), 150 minutes
[3] = 10% (0.25 mg/cm^3), 180 minutes
[4] = 10% (0.25 mg/cm^3), 210 minutes
[5] = 10% (0.25 mg/cm^3), 240 minutes
[6] = concentration 2% (0.05 mg/cm^3), time until arm bitten by two cumulative mosquitoes
[7] = concentration 10% (0.25 mg/cm^3), time until two cumulative bites, maximum measurement time 240 minutes

CC(C)=CCCC(C)CC(=O)O (racemic) [Citronellic acid, citronellic acid]
Repellent efficiency (%) per time (minutes) (2% (0.05 mg/cm^3), 30 minutes): 100%
Repellent efficiency (%) per time (minutes) (2% (0.05 mg/cm^3), 60 minutes): 84.7%
Repellent efficiency (%) per time (minutes) (2% (0.05 mg/cm^3), 90 minutes): 71.3%
Repellent efficiency (%) per time (minutes) (2% (0.05 mg/cm^3), 120 minutes): 56.4%
Repellent efficiency (%) per time (minutes) (2% (0.05 mg/cm^3), 150 minutes): 37.8%
Repellent efficiency (%) per time (minutes) (2% (0.05 mg/cm^3), 180 minutes): 15.2%
Repellent efficiency (%) per time (minutes) (2% (0.05 mg/cm^3), 210 minutes): 7.4%
Repellent efficiency (%) per time (minutes) (2% (0.05 mg/cm^3), 240 minutes): 0%
Repellent efficiency (%) per time (minutes) (10% (0.25 mg/cm^3), 30 minutes): 100%
Repellent efficiency (%) per time (minutes) (10% (0.25 mg/cm^3), 60 minutes): 100%
Repellent efficiency (%) per time (minutes) (10% (0.25 mg/cm^3), 90 minutes): 100%
Repellent efficiency (%) per time (minutes) [1]: 100%
Repellent efficiency (%) per time (minutes) [2]: 100%
Repellent efficiency (%) per time (minutes) [3]: 85.7%
Repellent efficiency (%) per time (minutes) [4]: 71.4%
Repellent efficiency (%) per time (minutes) [5]: 57.1%
Repellent efficiency (%) per time (hours) (15% (0.375 mg/cm^3), 1 hour): 100%
Repellent efficiency (%) per time (hours) (15% (0.375 mg/cm^3), 2 hours): 75%
Repellent efficiency (%) per time (hours) (15% (0.375 mg/cm^3), 3 hours): 75%
Repellent efficiency (%) per time (hours) (15% (0.375 mg/cm^3), 4 hours): 75%
Repellent efficiency (%) per time (hours) (15% (0.375 mg/cm^3), 5 hours): 50%
Repellent efficiency (%) per time (hours) (15% (0.375 mg/cm^3), 6 hours): 50%
Repellent efficiency (%) per time (hours) (15% (0.375 mg/cm^3), 7 hours): 37.5%
Repellent efficiency (%) per time (hours) (15% (0.375 mg/cm^3), 8 hours): 37.5%
Repellent efficiency (%) per time (hours) (15% (0.375 mg/cm^3), 9 hours): 25%
Repellent efficiency (%) per time (hours) (30% (0.75 mg/cm^3), 1 hour): 100%
Repellent efficiency (%) per time (hours) (30% (0.75 mg/cm^3), 2 hours): 87.5%
Repellent efficiency (%) per time (hours) (30% (0.75 mg/cm^3), 3 hours): 75%
Repellent efficiency (%) per time (hours) (30% (0.75 mg/cm^3), 4 hours): 75%
Repellent efficiency (%) per time (hours) (30% (0.75 mg/cm^3), 5 hours): 75%
Repellent efficiency (%) per time (hours) (30% (0.75 mg/cm^3), 6 hours): 62.5%
Repellent efficiency (%) per time (hours) (30% (0.75 mg/cm^3), 7 hours): 62.5%
Repellent efficiency (%) per time (hours) (30% (0.75 mg/cm^3), 8 hours): 62.5%
Repellent efficiency (%) per time (hours) (30% (0.75 mg/cm^3), 9 hours): 62.5%
Repellent efficiency (%) per time (hours) (30% (0.75 mg/cm^3), 10 hours): 50%
Repellent efficiency (%) per time (hours) (30% (0.75 mg/cm^3), 11 hours): 50%
Repellent efficiency (%) per time (hours) (30% (0.75 mg/cm^3), 12 hours): 50%
Repellent efficiency (%) per time (hours) (50% (1.25 mg/cm^3), 1 hour): 100%
Repellent efficiency (%) per time (hours) (50% (1.25 mg/cm^3), 2 hours): 100%
Repellent efficiency (%) per time (hours) (50% (1.25 mg/cm^3), 3 hours): 100%
Repellent efficiency (%) per time (hours) (50% (1.25 mg/cm^3), 4 hours): 100%
Repellent efficiency (%) per time (hours) (50% (1.25 mg/cm^3), 5 hours): 93.3%
Repellent efficiency (%) per time (hours) (50% (1.25 mg/cm^3), 6 hours): 86.7%
Repellent efficiency (%) per time (hours) (50% (1.25 mg/cm^3), 7 hours): 86.7%
Repellent efficiency (%) per time (hours) (50% (1.25 mg/cm^3), 8 hours): 86.7%
Repellent efficiency (%) per time (hours) (50% (1.25 mg/cm^3), 9 hours): 80%
Repellent efficiency (%) per time (hours) (50% (1.25 mg/cm^3), 10 hours): 73.3%
Repellent efficiency (%) per time (hours) (50% (1.25 mg/cm^3), 11 hours): 73.3%
Repellent efficiency (%) per time (hours) (50% (1.25 mg/cm^3), 12 hours): 73.3%
repellency (in words) (at the level of 0.0125 mg/cm^3): did not represent any repellency
time for which repellent efficiency of 100% was shown (at the level of 0.05 mg/cm^3): 30 min
time for which repellent efficiency of 100% was shown (at the level of 0.25 mg/cm^3): 150 min
Effective repellency duration (minute) (mean ± standard deviation) (concentration 0.5% (0.0125 mg/cm^3), time until arm bitten by two cumulative mosquitoes): 0 ± 0 min
Effective repellency duration (minute) (mean ± standard deviation) [6]: 60 ± 0 min
Effective repellency duration (minute) (mean ± standard deviation) [7]: 240 ± 0 min
Effective repellency duration (minute) (mean ± standard deviation) (concentration 10% (0.25 mg/cm^3), time until two cumulative bites, maximum measurement time 240 minutes, listed as citronellic acid): 240 min
Effective repellency duration (hour) (mean ± standard deviation) (concentration 15% (0.375 mg/cm^3)): 5.7 ± 2.03 h
Effective repellency duration (hour) (mean ± standard deviation) (concentration 30% (0.75 mg/cm^3)): 9.3 ± 1.76 h
Effective repellency duration (hour) (mean ± standard deviation) (concentration 30% (0.75 mg/cm^3), listed as citronellic acid): 9.3 h
Effective repellency duration (hour) (mean ± standard deviation) (concentration 50% (1.25 mg/cm^3)): 9.3 ± 1.76 h
Effective repellency duration (hour) (mean ± standard deviation) (concentration 50% (1.25 mg/cm^3), listed as citronellic acid): 9.3 h
repellent efficiency (for 8 hours at the level of 1.25 mg/cm^3): ~90%

CCN(CC)C(=O)c1cccc(C)c1 [DEET, N,N-diethyl-m-toluamide, reference compound]
Repellent efficiency (%) per time (minutes) (2% (0.05 mg/cm^3), 30 minutes): 100%
Repellent efficiency (%) per time (minutes) (2% (0.05 mg/cm^3), 60 minutes): 0%
Repellent efficiency (%) per time (minutes) (2% (0.05 mg/cm^3), 90 minutes): 0%
Repellent efficiency (%) per time (minutes) (2% (0.05 mg/cm^3), 120 minutes): 0%
Repellent efficiency (%) per time (minutes) (2% (0.05 mg/cm^3), 150 minutes): 0%
Repellent efficiency (%) per time (minutes) (2% (0.05 mg/cm^3), 180 minutes): 0%
Repellent efficiency (%) per time (minutes) (2% (0.05 mg/cm^3), 210 minutes): 0%
Repellent efficiency (%) per time (minutes) (2% (0.05 mg/cm^3), 240 minutes): 0%
Repellent efficiency (%) per time (minutes) (10% (0.25 mg/cm^3), 30 minutes): 100%
Repellent efficiency (%) per time (minutes) (10% (0.25 mg/cm^3), 60 minutes): 100%
Repellent efficiency (%) per time (minutes) (10% (0.25 mg/cm^3), 90 minutes): 100%
Repellent efficiency (%) per time (minutes) [1]: 100%
Repellent efficiency (%) per time (minutes) [2]: 87.5%
Repellent efficiency (%) per time (minutes) [3]: 81.3%
Repellent efficiency (%) per time (minutes) [4]: 78.1%
Repellent efficiency (%) per time (minutes) [5]: 71.9%
time for which repellent efficiency of 100% was shown (at the level of 0.25 mg/cm^3): 120 min
Effective repellency duration (minute) (mean ± standard deviation) [6]: 70 min and 70 ± 10.0 min
Effective repellency duration (minute) (mean ± standard deviation) [7]: 218 min and 218 ± 10.8 min

From patent US8841343B2, “Composition for repelling mosquitoes” (Bio & Hnt, Inc., priority 2006, dated 2014)
